The record followed here is patent US7301033B2, “PPAR-activating compound” (Kowa Co., Ltd., priority 2005, dated 2007).

Common to all, as to type: cell-based
For assay [1], the target named is T1, human PPARα (Homo sapiens, UniProt Q07869).
T1 construct: 166th to 467th amino acids of human PPARα; expressed in transfected cells; host or cells: COS cells (African green monkey kidney)
T1 sequence (Q07869 166-467): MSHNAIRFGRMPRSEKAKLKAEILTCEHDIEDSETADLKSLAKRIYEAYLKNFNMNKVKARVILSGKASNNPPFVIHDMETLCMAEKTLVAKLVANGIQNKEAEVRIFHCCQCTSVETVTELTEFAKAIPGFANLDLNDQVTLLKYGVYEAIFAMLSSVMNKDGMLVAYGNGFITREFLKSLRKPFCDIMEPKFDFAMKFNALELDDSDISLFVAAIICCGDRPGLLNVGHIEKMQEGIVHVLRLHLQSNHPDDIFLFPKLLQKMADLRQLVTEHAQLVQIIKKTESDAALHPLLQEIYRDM
The assay is described as follows: Gal4-human PPARα chimera luciferase transfection assay in COS cells. The protocol: (§1) The PPAR receptor-activating effect of the compound of the present invention represented by the formula (1) was measured by a method described below (Proc. Natl. Acad. Sci., 92, pp 7297-7301, 1995; Journal of Lipid Research, 40, pp 2099-2110, 1999; and Proc. Natl. Acad. Sci, 98, pp 5306-5311, 2001).
(§2) All the transfection assays were conducted using African green monkey kidney-derived cell line COS cells. The COS cells were cultured at 5% CO2 concentration using a DMEM medium containing 10% fetal bovine serum, glutamic acid, and an antibiotic as a culture solution.
(§3) Gal4-human PPARs chimeric constructs which were fused the DNA-binding region of yeast transcription factor Gal4 with the ligand-binding region of human PPARs were used as an expression vector. A chimera where 1st to 147th amino acids of the Gal4 transcription factor were fused with 166th to 467th amino acids of human PPARα, with 182nd to 505th amino acids of human PPARγ2, or with 137th to 441st amino acids of human PPARδ was used as the chimera for each isoform. A reporter vector used was firefly luciferase whose promoter region contains five Gal4 recognition sequences. The plasmids were transfected into the cells by a method using Lipofectamine. In addition, a β-galactosidase expression vector was used as an internal standard.
(§4) After the transfection into the cells, the medium was substituted with a DMEM medium (containing 0.2% serum) supplemented with the compound, in which the cells were then cultured for additional 16 hours. Thereafter, luciferase activity and β-galactosidase activity in the cell lysate were measured.
(§5) In the present experiment, dimethyl sulfoxide (DMSO) was used in the dissolution and dilution of the compound. When the cells were treated, the DMSO concentration in the DMEM medium (containing 0.2% serum) was adjusted to 0.1%.

Assay [2] concerns the target T2, human PPARδ (Homo sapiens, UniProt Q03181).
T2 construct: with 137th to 441st amino acids of human PPARδ; expressed in transfected cells; host or cells: COS cells (African green monkey kidney)
T2 sequence (Q03181 137-441): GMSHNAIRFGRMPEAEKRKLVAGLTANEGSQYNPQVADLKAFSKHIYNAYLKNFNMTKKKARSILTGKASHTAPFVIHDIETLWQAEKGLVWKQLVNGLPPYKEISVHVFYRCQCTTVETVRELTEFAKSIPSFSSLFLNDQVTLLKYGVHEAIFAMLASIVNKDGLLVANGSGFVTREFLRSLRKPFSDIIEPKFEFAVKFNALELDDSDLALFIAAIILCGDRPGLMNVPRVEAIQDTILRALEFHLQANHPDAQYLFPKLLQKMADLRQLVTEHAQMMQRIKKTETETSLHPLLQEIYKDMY
The assay is described as follows: Gal4-human PPARδ chimera luciferase transfection assay in COS cells. The conditions noted are these: compound added at 1 μM, luciferase activity with GW501516 1 μM given as 10.0, 16 hours. The protocol: as §1, §2, §3, §4, §5

Assay [3] deals with T3, human PPARγ2 (Homo sapiens, UniProt P37231).
T3 construct: with 182nd to 505th amino acids of human PPARγ2; expressed in transfected cells; host or cells: COS cells (African green monkey kidney)
T3 sequence (P37231 182-505): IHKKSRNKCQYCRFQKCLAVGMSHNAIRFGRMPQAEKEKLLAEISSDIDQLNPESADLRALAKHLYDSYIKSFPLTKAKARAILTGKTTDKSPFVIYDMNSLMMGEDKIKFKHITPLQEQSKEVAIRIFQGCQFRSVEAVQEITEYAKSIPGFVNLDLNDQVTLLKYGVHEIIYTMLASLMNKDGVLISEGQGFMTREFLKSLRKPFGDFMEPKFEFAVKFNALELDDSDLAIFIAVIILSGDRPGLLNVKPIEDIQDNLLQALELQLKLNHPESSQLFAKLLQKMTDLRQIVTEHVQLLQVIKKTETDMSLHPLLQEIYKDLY
The assay is described as follows: Gal4-human PPARγ2 chimera luciferase transfection assay in COS cells. The conditions noted are these: compound added at 1 μM, luciferase activity with rosiglitazone 1 μM given as 10.0, 16 hours. On the procedure:
as §1, §2, §3, §4, §5

[4] abbreviates: compound added at 1 μM, luciferase activity with WY14643 10 μM given as 10.0, 16 hours.

As for `CCCCCCN(CCCCOc1ccc(C(=O)O)cc1)c1nc2ccccc2o1` [Example 60, 4-[4-[N-(Benzoxazol-2-yl)-N-n-hexyl]aminobutoxy]benzoic acid], in assay [1] (setting [4]), the “hPPAR; Relative activity α” value is recorded as 11.9. Further, the “hPPAR; Relative activity δ” value in assay [2] was 0.1. Besides, the “hPPAR; Relative activity γ” value in assay [3] was 1.8.
Taken in the same sequence, the figures for `CCCCCCCCN(CCCOc1ccccc1C(=O)O)c1nc2ccccc2o1` [Example 27, 2-[3-[N-(Benzoxazol-2-yl)-N-n-octyl]aminopropoxy]benzoic acid] were 13.7, 0.1 and 1.9.
Turning to `CN(CCCCSc1ccccc1C(=O)O)c1nc2ccccc2s1` [Example 109, 2-[4-[N-(Benzothiazol-2-yl)-N-methyl]aminobutylthio]benzoic acid], the “hPPAR; Relative activity α” value in assay [1] (setting [4]) turned out to be 12.1. For the same compound, in assay [2], the “hPPAR; Relative activity δ” value turned out to be 0.2. For the same compound, the “hPPAR; Relative activity γ” value in assay [3] came to 0.8.
The corresponding values for `O=C(O)c1ccccc1SCCN(CCCOc1ccccc1)c1nc2ccccc2o1` [Example 80, 2-[2-[N-(Benzoxazol-2-yl)-N-3-phenoxypropyl]aminoethylthio]benzoic acid] are 17.8, 0.2 and 1.6.
The corresponding values for `CCCCCCN(CCCCSc1ccccc1C(=O)O)c1nc2ccccc2o1` [Example 93, 2-[4-[N-(Benzoxazol-2-yl)-N-n-hexyl]aminobutylthio]benzoic acid] are 12.3, 0.4 and 4.1.
In the case of `Cc1cccc(Nc2cc(Cl)nc(SCC(=O)O)n2)c1C` [WY14643, reference compound], in assay [1] (positive compound at 10 μM, its luciferase activity given as 10.0, 16 hours), the “hPPAR; Relative activity α” value is listed as 10.0.
`CCCCCCCN(CCCOc1cccc(C(=O)O)c1)c1nc2ccccc2o1` [Example 19, 3-[3-[N-(Benzoxazol-2-yl)-N-n-heptyl]aminopropoxy]benzoic acid]: the “hPPAR; Relative activity α” value in assay [1] (setting [4]) is given as 15.1. Also, the “hPPAR; Relative activity δ” value in assay [2] is recorded as 0.5. Besides, the “hPPAR; Relative activity γ” value in assay [3] was 1.7.
The corresponding values for `CCN(CCCCSc1ccccc1C(=O)O)c1nc2ccccc2s1` [Example 108, 2-[4-[N-(Benzothiazol-2-yl)-N-ethyl]aminobutylthio]benzoic acid] are 16.2, 0.2 and 1.4.
Taken in the same sequence, the figures for `O=C(O)c1ccccc1SCCCCCCN(Cc1ccc(Cl)cc1)c1nc2ccccc2o1` [Example 106, 2-[6-[N-(Benzoxazol-2-yl)-N-4-chlorobenzyl]aminohexylthio]benzoic acid] were 13.1, 0.0 and 2.4.
Taken in the same sequence, the figures for `CCCCCCCCN(CCSc1ccccc1C(=O)O)c1nc2ccccc2o1` [Example 78, 2-[2-[N-(Benzoxazol-2-yl)-N-n-octyl]aminoethylthio]benzoic acid] were 20.8, 0.2 and 2.1.
For `CCCCCN(CCCCOc1cccc(C(=O)O)c1)c1nc2ccccc2o1` [Example 47, 3-[4-[N-(Benzoxazol-2-yl)-N-n-pentyl]aminobutoxy]benzoic acid], the “hPPAR; Relative activity α” value in assay [1] (setting [4]) stood at 10.4. Also, the “hPPAR; Relative activity δ” value in assay [2] amounted to 0.3. Further, in assay [3], the “hPPAR; Relative activity γ” value was 1.2.
`CCCCCCCCN(CCCCCS(=O)(=O)c1ccccc1C(=O)O)c1nc2ccccc2o1` [Example 122, 2-[5-[N-(Benzoxazol-2-yl)-N-n-octyl]aminopentylsulfonyl]benzoic acid]: in assay [1] (setting [4]), the “hPPAR; Relative activity α” value was found to be 12.2. In addition, in assay [2], the “hPPAR; Relative activity δ” value was determined as 0.2. Further, the “hPPAR; Relative activity γ” value in assay [3] came out at 2.3.
The corresponding values for `CCCCCCCCN(CCCCOc1ccccc1C(=O)O)c1nc2ccccc2o1` [Example 50, 2-[4-[N-(Benzoxazol-2-yl)-N-n-octyl]aminobutoxy]benzoic acid] are 13.3, 0.1 and 2.9.
The corresponding values for `O=C(O)c1cccc(OCCCCN(CCOc2ccc(Cl)cc2)c2nc3ccccc3o2)c1` [Example 45, 3-[4-[N-(Benzoxazol-2-yl)-N-2-(4-chloropheoxyl)ethyl]aminobutoxy]benzoic acid] are 12.3, 0.6 and 3.5.
In the case of `O=C(O)c1ccccc1SCCCCN(CCCc1ccccc1)c1nc2ccccc2o1` [Example 97, 2-[4-[N-(Benzoxazol-2-yl)-N-3-phenylpropyl]aminobutylthio]benzoic acid], the “hPPAR; Relative activity α” value in assay [1] (setting [4]) was 11.6. For the same compound, the “hPPAR; Relative activity δ” value in assay [2] turned out to be 0.2. Further, in assay [3], the “hPPAR; Relative activity γ” value came out at 4.6.
The corresponding values for `CCCCCCCCN(CCCOc1cccc(C(=O)O)c1)c1nc2ccccc2o1` [Example 20, 3-[3-[N-(Benzoxazol-2-yl)-N-n-octyl]aminopropoxy]benzoic acid] are 21.7, 0.2 and 1.5.
Taken in the same sequence, the figures for `CCCCCCCN(CCCCOc1cccc(C(=O)O)c1)c1nc2ccccc2o1` [Example 46, 3-[4-[N-(Benzoxazol-2-yl)-N-n-heptyl]aminobutoxy]benzoic acid] were 16.5, 0.3 and 1.9.
`O=C(O)c1cccc(OCCCN(CCOc2ccc(Cl)cc2)c2nc3ccccc3o2)c1` [Example 6, 3-[3-[N-(Benzoxazol-2-yl)-N-2-(4-chlorophenoxy)ethyl]aminopropoxy]benzoic acid]: in assay [1] (setting [4]), the “hPPAR; Relative activity α” value was 17.3. Also, the “hPPAR; Relative activity δ” value in assay [2] is recorded as 0.3. In assay [3], the “hPPAR; Relative activity γ” value stood at 1.2.
The corresponding values for `CCCN(CCCCSc1ccccc1C(=O)O)c1nc2ccccc2s1` [Example 110, 2-[4-[N-(Benzothiazol-2-yl)-N-n-propyl]aminobutylthio]benzoic acid] are 11.0, 0.2 and 2.0.
Taken in the same sequence, the figures for `CCCCN(CCCCCSc1ccccc1C(=O)O)c1nc2ccccc2o1` [Example 71, 2-[5-[N-(Benzoxazol-2-yl)-N-n-butyl]aminopentylthio]benzoic acid] were 11.0, 0.5 and 2.0.
Regarding `O=C(O)c1ccccc1SCCCCCN(CCCc1ccccc1)c1nc2ccccc2o1` [Example 104, 2-[5-[N-(BenzoxazoI-2-yl)-N-3-phenylpropyl]aminopentylthio]benzoic acid], the “hPPAR; Relative activity α” value in assay [1] (setting [4]) was 18.7. For the same compound, the “hPPAR; Relative activity δ” value in assay [2] was 0.8. In assay [3], the “hPPAR; Relative activity γ” value is given as 2.7.
